Measurements published in ChEMBL document CHEMBL3396981, “Synthesis and in vitro biological evaluation of 2-(phenylcarbamoyl)phenyl 4-substituted benzoates” (Bioorg Med Chem, 2015).
Values after ≈ are worked out from the molar mass of the structure shown.

Columns and labels:
[1] = tested on: Mycobacterium tuberculosis; assay: Antimycobacterial activity against INH, RIF, rifabutin, streptomycin, ethambutol, clofazimine-resistant Mycobacterium tuberculosis Praha 1 after 21 days by microdilution method; format: functional; conditions: Praha 1, 504 h
[2] = tested on: Mycobacterium tuberculosis; assay: Antimycobacterial activity against INH, RIF, rifabutin, streptomycin, ethambutol, ofloxacin-resistant Mycobacterium tuberculosis 7357/1998 after 21 days by microdilution method; format: functional; conditions: 7357/1998, 504 h
[3] = tested on: Mycobacterium tuberculosis; assay: Antimycobacterial activity against INH, RIF, rifabutin, streptomycin, ethambutol, ofloxacin, gentamicin, amikacin-resistant Mycobacterium tuberculosis Praha 131 after 21 days by microdilution method; format: functional; conditions: Praha 131, 504 h
[4] = tested on: Mycobacterium tuberculosis; assay: Antimycobacterial activity against INH, RIF, rifabutin, streptomycin, ethambutol, clofazimine-resistant Mycobacterium tuberculosis Praha 1 after 14 days by microdilution method; format: functional; conditions: Praha 1, 336 h
[5] = tested on: Mycobacterium tuberculosis; assay: Antimycobacterial activity against INH, RIF, rifabutin, streptomycin, ethambutol, ofloxacin-resistant Mycobacterium tuberculosis 234/2005 after 21 days by microdilution method; format: functional; conditions: 234/2005, 504 h
[6] = tested on: Mycobacterium tuberculosis; assay: Antimycobacterial activity against INH, RIF, rifabutin, streptomycin, ethambutol, ofloxacin-resistant Mycobacterium tuberculosis 234/2005 after 14 days by microdilution method; format: functional; conditions: 234/2005, 336 h
[7] = tested on: Mycobacterium tuberculosis; assay: Antimycobacterial activity against INH, RIF, rifabutin, streptomycin, ethambutol, ofloxacin, gentamicin, amikacin-resistant Mycobacterium tuberculosis Praha 131 after 14 days by microdilution method; format: functional; conditions: Praha 131, 336 h
[8] = tested on: Mycobacterium tuberculosis; assay: Antimycobacterial activity against INH, RIF, rifabutin, streptomycin, ethambutol, ofloxacin-resistant Mycobacterium tuberculosis 7357/1998 after 14 days by microdilution method; format: functional; conditions: 7357/1998, 336 h
[9] = tested on: Mycobacterium tuberculosis; assay: Antimycobacterial activity against INH, RIF, rifabutin, streptomycin-resistant Mycobacterium tuberculosis 9449/2006 after 21 days by microdilution method; format: functional; conditions: 9449/2006, 504 h
[10] = tested on: Mycobacterium tuberculosis; assay: Antimycobacterial activity against INH, RIF, rifabutin, streptomycin-resistant Mycobacterium tuberculosis 9449/2006 after 14 days by microdilution method; format: functional; conditions: 9449/2006, 336 h
[11] = Selectivity index, ratio of IC50 for human HepG2 cells to MIC for multidrug-resistant Mycobacterium tuberculosis; format: toxicity, cell-based; conditions: read-out: Selectivity Index
[12] = tested on: Mycobacterium tuberculosis; assay: Antimycobacterial activity against INH, RIF, rifabutin, streptomycin, ethambutol, ofloxacin, clofazimine-resistant Mycobacterium tuberculosis Praha 4 after 21 days by microdilution method; format: functional; conditions: Praha 4, 504 h
[13] = tested on: Mycobacterium tuberculosis; assay: Antimycobacterial activity against INH, RIF, rifabutin, streptomycin, ethambutol, ofloxacin, clofazimine-resistant Mycobacterium tuberculosis Praha 4 after 14 days by microdilution method; format: functional; conditions: Praha 4, 336 h

**Q.** With O=C(Oc1ccc(Br)cc1C(=O)Nc1ccc(C(F)(F)F)cc1)c1ccc(C(F)(F)F)cc1 as the molecule, how does the MIC [1] read?
**A.** Its MIC is 1 µM (≈ 0.532 µg/mL).

**Q.** What about the MIC [2] of the same molecule?
**A.** The MIC was 1 µM (≈ 0.532 µg/mL).

**Q.** What about the MIC [3] of the same molecule?
**A.** Its MIC is 1 µM (≈ 0.532 µg/mL).

**Q.** And the MIC [4]?
**A.** The MIC was 0.5 µM (≈ 0.266 µg/mL).

**Q.** And the MIC [5]?
**A.** The MIC was 1 µM (≈ 0.532 µg/mL).

**Q.** And the MIC [6]?
**A.** The MIC was 0.5 µM (≈ 0.266 µg/mL).

**Q.** And the MIC [7]?
**A.** Its MIC is 0.5 µM (≈ 0.266 µg/mL).

**Q.** And the MIC [8]?
**A.** The MIC was 1 µM (≈ 0.532 µg/mL).

**Q.** What about the MIC [9] of the same molecule?
**A.** The MIC was 1 µM (≈ 0.532 µg/mL).

**Q.** And the MIC [10]?
**A.** The MIC was 1 µM (≈ 0.532 µg/mL).

**Q.** For Cc1ccc(C(=O)Oc2ccc(Cl)cc2C(=O)Nc2ccc(Cl)c(Cl)c2)cc1, which selectivity ratio [11] is on record?
**A.** Its selectivity ratio is greater than 25.

**Q.** What about the MIC [1] of the same molecule?
**A.** The MIC was 1 µM (≈ 0.435 µg/mL).

**Q.** What about the MIC [2] of the same molecule?
**A.** Its MIC is 1 µM (≈ 0.435 µg/mL).

**Q.** And the MIC [3]?
**A.** The MIC was 1 µM (≈ 0.435 µg/mL).

**Q.** And the MIC [4]?
**A.** The MIC was 1 µM (≈ 0.435 µg/mL).

**Q.** And the MIC [5]?
**A.** The MIC was 2 µM (≈ 0.869 µg/mL).

**Q.** What about the MIC [6] of the same molecule?
**A.** Its MIC is 2 µM (≈ 0.869 µg/mL).

**Q.** What about the MIC [7] of the same molecule?
**A.** The MIC was 1 µM (≈ 0.435 µg/mL).

**Q.** And the MIC [8]?
**A.** Its MIC is 1 µM (≈ 0.435 µg/mL).

**Q.** And the MIC [9]?
**A.** Its MIC is 1 µM (≈ 0.435 µg/mL).

**Q.** What about the MIC [12] of the same molecule?
**A.** Its MIC is 1 µM (≈ 0.435 µg/mL).

**Q.** And the MIC [10]?
**A.** Its MIC is 1 µM (≈ 0.435 µg/mL).

**Q.** What about the MIC [13] of the same molecule?
**A.** The MIC was 1 µM (≈ 0.435 µg/mL).

**Q.** Which results are given for O=C(Oc1ccc(Cl)cc1C(=O)Nc1ccc(Cl)c(Cl)c1)c1ccc([N+](=O)[O-])cc1?
**A.** selectivity ratio [11]: > 100; MIC [2]: 0.5 µM (≈ 0.233 µg/mL); MIC [3]: 0.25 µM (≈ 0.116 µg/mL); MIC [7]: 0.25 µM (≈ 0.116 µg/mL); MIC [8]: 0.25 µM (≈ 0.116 µg/mL); MIC [9]: 0.5 µM (≈ 0.233 µg/mL); MIC [12]: 0.5 µM (≈ 0.233 µg/mL); MIC [10]: 0.25 µM (≈ 0.116 µg/mL); MIC [13]: 0.25 µM (≈ 0.116 µg/mL)

**Q.** Which selectivity ratio [11] does the source give for O=C(Oc1ccc(Cl)cc1C(=O)Nc1ccc(C(F)(F)F)cc1)c1ccc([N+](=O)[O-])cc1 here?
**A.** The selectivity ratio was greater than 50.

**Q.** And the MIC [1]?
**A.** Its MIC is 1 µM (≈ 0.465 µg/mL).

**Q.** What about the MIC [2] of the same molecule?
**A.** The MIC was 1 µM (≈ 0.465 µg/mL).

**Q.** What about the MIC [3] of the same molecule?
**A.** The MIC was 1 µM (≈ 0.465 µg/mL).

**Q.** What about the MIC [4] of the same molecule?
**A.** The MIC was 0.5 µM (≈ 0.232 µg/mL).

**Q.** And the MIC [5]?
**A.** The MIC was 1 µM (≈ 0.465 µg/mL).

**Q.** And the MIC [6]?
**A.** Its MIC is 0.25 µM (≈ 0.116 µg/mL).

**Q.** What about the MIC [7] of the same molecule?
**A.** Its MIC is 0.5 µM (≈ 0.232 µg/mL).

**Q.** And the MIC [8]?
**A.** The MIC was 0.5 µM (≈ 0.232 µg/mL).

**Q.** And the MIC [9]?
**A.** Its MIC is 1 µM (≈ 0.465 µg/mL).

**Q.** And the MIC [12]?
**A.** Its MIC is 1 µM (≈ 0.465 µg/mL).

**Q.** And the MIC [10]?
**A.** Its MIC is 0.5 µM (≈ 0.232 µg/mL).

**Q.** And the MIC [13]?
**A.** The MIC was 0.25 µM (≈ 0.116 µg/mL).

**Q.** With O=C(Oc1ccc(Br)cc1C(=O)Nc1ccc(C(F)(F)F)cc1)c1ccccc1 as the molecule, how does the MIC [1] read?
**A.** The MIC was 1 µM (≈ 0.464 µg/mL).

**Q.** And the MIC [2]?
**A.** The MIC was 0.5 µM (≈ 0.232 µg/mL).

**Q.** And the MIC [3]?
**A.** The MIC was 1 µM (≈ 0.464 µg/mL).

**Q.** What about the MIC [4] of the same molecule?
**A.** Its MIC is 1 µM (≈ 0.464 µg/mL).

**Q.** And the MIC [5]?
**A.** The MIC was 0.5 µM (≈ 0.232 µg/mL).

**Q.** What about the MIC [6] of the same molecule?
**A.** The MIC was 0.5 µM (≈ 0.232 µg/mL).

**Q.** And the MIC [7]?
**A.** The MIC was 0.5 µM (≈ 0.232 µg/mL).

**Q.** What about the MIC [8] of the same molecule?
**A.** The MIC was 0.25 µM (≈ 0.116 µg/mL).

**Q.** And the MIC [9]?
**A.** Its MIC is 1 µM (≈ 0.464 µg/mL).

**Q.** What about the MIC [10] of the same molecule?
**A.** Its MIC is 1 µM (≈ 0.464 µg/mL).

**Q.** With O=C(Oc1ccc(Cl)cc1C(=O)Nc1ccc(Cl)c(Cl)c1)c1ccc(C(F)(F)F)cc1 as the molecule, how does the MIC [1] read?
**A.** Its MIC is 2 µM (≈ 0.977 µg/mL).

**Q.** And the MIC [2]?
**A.** The MIC was 2 µM (≈ 0.977 µg/mL).

**Q.** What about the MIC [3] of the same molecule?
**A.** The MIC was 2 µM (≈ 0.977 µg/mL).

**Q.** And the MIC [4]?
**A.** Its MIC is 1 µM (≈ 0.489 µg/mL).

**Q.** What about the MIC [5] of the same molecule?
**A.** Its MIC is 2 µM (≈ 0.977 µg/mL).

**Q.** And the MIC [6]?
**A.** Its MIC is 1 µM (≈ 0.489 µg/mL).

**Q.** What about the MIC [7] of the same molecule?
**A.** Its MIC is 2 µM (≈ 0.977 µg/mL).

**Q.** And the MIC [8]?
**A.** The MIC was 1 µM (≈ 0.489 µg/mL).

**Q.** What about the MIC [9] of the same molecule?
**A.** Its MIC is 2 µM (≈ 0.977 µg/mL).

**Q.** And the MIC [10]?
**A.** Its MIC is 2 µM (≈ 0.977 µg/mL).

**Q.** What does the source list for O=C(Oc1ccc(Br)cc1C(=O)Nc1ccc(C(F)(F)F)cc1)c1ccc(Br)cc1?
**A.** selectivity ratio [11]: > 50; MIC [2]: 1 µM (≈ 0.543 µg/mL); MIC [3]: 1 µM (≈ 0.543 µg/mL); MIC [7]: 0.5 µM (≈ 0.272 µg/mL); MIC [8]: 0.5 µM (≈ 0.272 µg/mL); MIC [9]: 1 µM (≈ 0.543 µg/mL); MIC [12]: 0.5 µM (≈ 0.272 µg/mL); MIC [10]: 0.5 µM (≈ 0.272 µg/mL); MIC [13]: 0.25 µM (≈ 0.136 µg/mL)

**Q.** With O=C(Oc1ccc(Cl)cc1C(=O)Nc1ccc(C(F)(F)F)cc1)c1ccc(Br)cc1 as the molecule, how does the selectivity ratio [11] read?
**A.** The selectivity ratio was greater than 25.

**Q.** What about the MIC [1] of the same molecule?
**A.** The MIC was 1 µM (≈ 0.499 µg/mL).

**Q.** What about the MIC [2] of the same molecule?
**A.** Its MIC is 1 µM (≈ 0.499 µg/mL).

**Q.** And the MIC [3]?
**A.** The MIC was 1 µM (≈ 0.499 µg/mL).

**Q.** And the MIC [4]?
**A.** Its MIC is 1 µM (≈ 0.499 µg/mL).

**Q.** And the MIC [5]?
**A.** Its MIC is 2 µM (≈ 0.997 µg/mL).

**Q.** And the MIC [6]?
**A.** The MIC was 2 µM (≈ 0.997 µg/mL).

**Q.** And the MIC [7]?
**A.** The MIC was 1 µM (≈ 0.499 µg/mL).

**Q.** And the MIC [8]?
**A.** The MIC was 1 µM (≈ 0.499 µg/mL).

**Q.** And the MIC [9]?
**A.** The MIC was 1 µM (≈ 0.499 µg/mL).

**Q.** And the MIC [10]?
**A.** Its MIC is 1 µM (≈ 0.499 µg/mL).
